According to PubChem BioAssay AID1963965 (Molecular Pharmacology Branch, DTP, NCI, 2024):

Tested on: 996289-038-R-J1-PDC spheroid viability
Test: Anticancer human tumor 996289-038-R-J1-PDC patient-derived colon adenocarcinoma cell line growth inhibition [PI3K]
Conditions: spheroids with HUVEC and MSC; for IC50: curve of first compound; for viability, T/C: stronger effect = lower value; active = viability on the fitted dose curve at most 10% of control; inactive = the rest
How it was run: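 Targeted small molecules plus PI3K inhibitors, half-log dose series from Cmax (default top 10 microM), were applied to heterotypic spheroids of cancer cells with HUVEC and MSCs. Viability indicated growth inhibition.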

[1] = second compound 0.0316 µM, first compound 0.000316 µM
[2] = second compound 0.0316 µM, first compound 0.001 µM
[3] = second compound 0.0316 µM, first compound 0.00316 µM
[4] = second compound 0.0316 µM, first compound 0.01 µM
[5] = second compound 0.0316 µM, first compound 0.0316 µM
[6] = second compound 0.0316 µM, first compound 0.1 µM
[7] = second compound 0.1 µM, first compound 0.000316 µM
[8] = second compound 0.1 µM, first compound 0.001 µM
[9] = second compound 0.1 µM, first compound 0.00316 µM
[10] = second compound 0.1 µM, first compound 0.01 µM
[11] = second compound 0.1 µM, first compound 0.0316 µM
[12] = second compound 0.1 µM, first compound 0.1 µM
[13] = second compound 0.316 µM, first compound 0.000316 µM
[14] = second compound 0.316 µM, first compound 0.001 µM
[15] = second compound 0.316 µM, first compound 0.00316 µM
[16] = second compound 0.316 µM, first compound 0.01 µM
[17] = second compound 0.316 µM, first compound 0.0316 µM
[18] = second compound 0.316 µM, first compound 0.1 µM
[19] = second compound 1 µM, first compound 0.000316 µM
[20] = second compound 1 µM, first compound 0.001 µM
[21] = second compound 1 µM, first compound 0.00316 µM
[22] = second compound 1 µM, first compound 0.01 µM
[23] = second compound 1 µM, first compound 0.0316 µM
[24] = second compound 1 µM, first compound 0.1 µM
[25] = second compound 3.16 µM, first compound 0.000316 µM
[26] = second compound 3.16 µM, first compound 0.001 µM
[27] = second compound 3.16 µM, first compound 0.00316 µM
[28] = second compound 3.16 µM, first compound 0.01 µM
[29] = second compound 3.16 µM, first compound 0.0316 µM
[30] = second compound 3.16 µM, first compound 0.1 µM
[31] = second compound 10 µM, first compound 0.000316 µM
[32] = second compound 10 µM, first compound 0.001 µM
[33] = second compound 10 µM, first compound 0.00316 µM
[34] = second compound 10 µM, first compound 0.01 µM
[35] = second compound 10 µM, first compound 0.0316 µM
[36] = second compound 10 µM, first compound 0.1 µM
[37] = second compound 0.0316 µM, first compound 0.316 µM
[38] = second compound 0.0316 µM, first compound 1 µM
[39] = second compound 0.0316 µM, first compound 3.16 µM
[40] = second compound 0.0316 µM, first compound 10 µM
[41] = second compound 0.1 µM, first compound 0.316 µM
[42] = second compound 0.1 µM, first compound 1 µM
[43] = second compound 0.1 µM, first compound 3.16 µM
[44] = second compound 0.1 µM, first compound 10 µM
[45] = second compound 0.316 µM, first compound 0.316 µM
[46] = second compound 0.316 µM, first compound 1 µM
[47] = second compound 0.316 µM, first compound 3.16 µM
[48] = second compound 0.316 µM, first compound 10 µM
[49] = second compound 1 µM, first compound 0.316 µM
[50] = second compound 1 µM, first compound 1 µM
[51] = second compound 1 µM, first compound 3.16 µM
[52] = second compound 1 µM, first compound 10 µM
[53] = second compound 3.16 µM, first compound 0.316 µM
[54] = second compound 3.16 µM, first compound 1 µM
[55] = second compound 3.16 µM, first compound 3.16 µM
[56] = second compound 3.16 µM, first compound 10 µM
[57] = second compound 10 µM, first compound 0.316 µM
[58] = second compound 10 µM, first compound 1 µM
[59] = second compound 10 µM, first compound 3.16 µM
[60] = second compound 10 µM, first compound 10 µM
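Note: spheroids exposed to compounds for seven days before viability read.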
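Throughout, for viability, T/C: luminescence used as a proxy for viable cell amount; percent viability relative to DMSO vehicle control as 100%.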

CC(=O)c1c(C)c2cnc(Nc3ccc(N4CCNCC4)cn3)nc2n(C2CCCC2)c1=O + CC(Nc1ncnc2nc[nH]c12)c1cc2cccc(Cl)c2c(=O)n1-c1ccccc1
inactive: viability, T/C [1] 104% | viability, T/C [2] 96.3% | viability, T/C [3] 93.2% | viability, T/C [4] 92% | viability, T/C [5] 99.2% | viability, T/C [6] 84.2% | viability, T/C [7] 96.4% | viability, T/C [8] 97.5% | viability, T/C [9] 101% | viability, T/C [10] 102% | viability, T/C [11] 107% | viability, T/C [12] 90.1% | viability, T/C [13] 93.8% | viability, T/C [14] 105% | viability, T/C [15] 102% | viability, T/C [16] 97.7% | viability, T/C [17] 108% | viability, T/C [18] 86.7% | viability, T/C [19] 106% | viability, T/C [20] 102% | viability, T/C [21] 90.3% | viability, T/C [22] 95.2% | viability, T/C [23] 92.4% | viability, T/C [24] 89.8% | viability, T/C [25] 102% | viability, T/C [26] 91.3% | viability, T/C [27] 88.4% | viability, T/C [28] 95.9% | viability, T/C [29] 103% | viability, T/C [30] 84.5% | viability, T/C [31] 87.5% | viability, T/C [32] 84.4% | viability, T/C [33] 88.2% | viability, T/C [34] 86.7% | viability, T/C [35] 104% | viability, T/C [36] 72.7%
> 0.1 µM: IC50 (second compound 0.0316 µM) | IC50 (second compound 0.1 µM) | IC50 (second compound 0.316 µM) | IC50 (second compound 1 µM) | IC50 (second compound 3.16 µM) | IC50 (second compound 10 µM)

C[C@@H](NC(=O)c1ncnc(N)c1Cl)c1ncc(C(=O)Nc2cc(C(F)(F)F)c(Cl)cn2)s1 + Cc1nc(NC(=O)N2CCCC2C(N)=O)sc1-c1ccnc(C(C)(C)C(F)(F)F)c1
inactive: viability, T/C [5] 89.5% | viability, T/C [6] 89.8% | viability, T/C [37] 124% | viability, T/C [38] 114% | viability, T/C [39] 113% | viability, T/C [40] 128% | viability, T/C [11] 99.3% | viability, T/C [12] 100% | viability, T/C [41] 103% | viability, T/C [42] 104% | viability, T/C [43] 109% | viability, T/C [44] 105% | viability, T/C [17] 80.5% | viability, T/C [18] 88.6% | viability, T/C [45] 90.8% | viability, T/C [46] 93.9% | viability, T/C [47] 109% | viability, T/C [48] 92.4% | viability, T/C [23] 64.3% | viability, T/C [24] 72.8% | viability, T/C [49] 73.5% | viability, T/C [50] 81.1% | viability, T/C [51] 102% | viability, T/C [52] 70.8% | viability, T/C [29] 62.1% | viability, T/C [30] 68.3% | viability, T/C [53] 60.3% | viability, T/C [54] 67.7% | viability, T/C [55] 68.7% | viability, T/C [56] 54.3% | viability, T/C [35] 40.6% | viability, T/C [36] 47.1% | viability, T/C [57] 54.3% | viability, T/C [58] 44.3% | viability, T/C [59] 46.9% | viability, T/C [60] 39.9%
> 10 µM: IC50 (second compound 0.0316 µM) | IC50 (second compound 0.1 µM) | IC50 (second compound 0.316 µM) | IC50 (second compound 1 µM) | IC50 (second compound 3.16 µM)
< 0.0316 µM: IC50 (second compound 10 µM)

CC(Cn1ccc(-c2ccc(C#N)c(Cl)c2)n1)NC(=O)c1cc(C(C)O)[nH]n1 (stereo not drawn) + Cc1nc(NC(=O)N2CCCC2C(N)=O)sc1-c1ccnc(C(C)(C)C(F)(F)F)c1
< 0.0316 µM: IC50 (second compound 10 µM)
> 10 µM: IC50 (second compound 0.0316 µM) | IC50 (second compound 0.1 µM) | IC50 (second compound 0.316 µM) | IC50 (second compound 1 µM) | IC50 (second compound 3.16 µM)
inactive: viability, T/C [5] 84% | viability, T/C [6] 86.7% | viability, T/C [37] 95.2% | viability, T/C [38] 109% | viability, T/C [39] 98.9% | viability, T/C [40] 91.8% | viability, T/C [11] 96.6% | viability, T/C [12] 89.7% | viability, T/C [41] 97.8% | viability, T/C [42] 94.4% | viability, T/C [43] 92.4% | viability, T/C [44] 92.3% | viability, T/C [17] 95.8% | viability, T/C [18] 85.3% | viability, T/C [45] 85% | viability, T/C [46] 77.3% | viability, T/C [47] 78.3% | viability, T/C [48] 85.3% | viability, T/C [23] 68.8% | viability, T/C [24] 82.4% | viability, T/C [49] 80.9% | viability, T/C [50] 89.9% | viability, T/C [51] 77% | viability, T/C [52] 69.3% | viability, T/C [29] 58.5% | viability, T/C [30] 55.8% | viability, T/C [53] 66.6% | viability, T/C [54] 66.7% | viability, T/C [55] 72.7% | viability, T/C [56] 50.9% | viability, T/C [35] 49% | viability, T/C [36] 43.1% | viability, T/C [57] 48.9% | viability, T/C [58] 42.3% | viability, T/C [59] 43.1% | viability, T/C [60] 46.4%

Cn1ncnc1[C@H]1c2n[nH]c(=O)c3cc(F)cc(c23)N[C@@H]1c1ccc(F)cc1 + Cc1nc(NC(=O)N2CCCC2C(N)=O)sc1-c1ccnc(C(C)(C)C(F)(F)F)c1
inactive: viability, T/C [1] 120% | viability, T/C [2] 117% | viability, T/C [3] 97.9% | viability, T/C [4] 90.3% | viability, T/C [5] 99.9% | viability, T/C [6] 99% | viability, T/C [7] 113% | viability, T/C [8] 101% | viability, T/C [9] 79.5% | viability, T/C [10] 84.9% | viability, T/C [11] 91.2% | viability, T/C [12] 83.2% | viability, T/C [13] 88.3% | viability, T/C [14] 85% | viability, T/C [15] 84.1% | viability, T/C [16] 89.8% | viability, T/C [17] 90.8% | viability, T/C [18] 77.3% | viability, T/C [19] 76.6% | viability, T/C [20] 70.9% | viability, T/C [21] 78.5% | viability, T/C [22] 77.9% | viability, T/C [23] 76.7% | viability, T/C [24] 68.3% | viability, T/C [25] 53.7% | viability, T/C [26] 69.4% | viability, T/C [27] 64% | viability, T/C [28] 61.1% | viability, T/C [29] 62% | viability, T/C [30] 58.4% | viability, T/C [31] 42.5% | viability, T/C [32] 51.5% | viability, T/C [33] 49.5% | viability, T/C [34] 44.2% | viability, T/C [35] 55.1% | viability, T/C [36] 40.8%
< 0.000316 µM: IC50 (second compound 10 µM)
> 0.1 µM: IC50 (second compound 0.0316 µM) | IC50 (second compound 0.1 µM) | IC50 (second compound 0.316 µM) | IC50 (second compound 1 µM) | IC50 (second compound 3.16 µM)
